Measurements: patent publication US5488049A, “Method of treating learning and memory disorders using benzothiadiazide derivatives as nootropic agents” (FIDIA - Georgetown Institute for the Neuro-Sciences, priority 1993, dated 1996)

Assays:
[1] = test system: kainate-activated current; experiment: Selectivity: ionic current elicited by 20 μM kainate; type: cell-based, rat
Protocol: (§1) Young rats (12-16 days old) were decapitated and the brains quickly removed and placed in ice-cold Ringer solution. Thin slices of hippocampus (250 μm) were then cut with a vibratome slicer (Lancer, St. Louis, Mo.) and kept in Ringer solution at 37° C. until use. The experiments were carried out at room temperature with the slice totally submerged in a 1 ml volume recording chamber and under continuous perfusion with Ringer solution at a rate of 6 ml/min using an upright Hoffman modulation contrast microscope (Carl Zeiss, Germany) equipped with a 40×water immersion objective.
(§2) Media and drug application. The external Ringer solution contained (in mM): NaCl 120; KCl 3.1; CaCl2 2; MgCl2 1; KH2 PO4 1; NaHCO3 26; glucose 2.7; and it was continuously bubbled with 95% O2 and 5% CO2. Patch pipettes were filled with a solution containing (in mM): K-gluconate 140; MgCl2 1; ATP.Mg 2; EGTA 0.5; HEPES-KOH 10, pH 7.2. All the drugs under investigation were applied through the recording chamber perfusion system via parallel inputs having a common entry into the chamber. Agonist application was attained using two different systems that allowed a slow or a rapid solution change. Slow solution changes were used during recordings in whole-cell configuration and were obtained by exchanging the solution of the recording chamber within a few seconds. Fast solution changes were obtained with the use of the Y-shaped tubing method that allows complete exchange of solution in less than 10 ms, and is described in detail by Murase et al. (1989).
(§3) Ionic currents in whole-cell configuration and outside-out excised membrane patches were monitored using the patch clamp technique (15).

[2] = test system: AMPA receptors located on CAl pyramidal neuronal membranes; experiment: Slow bath perfusion, whole-cell: potentiation of glutamate-elicited current (with MK-801) in CAl pyramidal neurons of hippocampal slices; type: cell-based, rat
Protocol: as §1, §2
IDRA compounds (see above for structures) were first dissolved in 50 μl of DMSO, then […] of 1N NaOH and water (sufficient to reach a volume of 1 ml and a concentration of 10 mM). The final concentration was reached diluting the stock solution with Ringer solution.
as §3
The action diazoxide and the IDRA analogues were tested on the desensitization of AMPA receptors located on CAl pyramidal neuronal membranes in rat hippocampal slices. In order to evaluate whether the compounds under study increase the intensity of currents generated by the activation of non-NMDA receptors, these receptors were activated with glutamate in the presence of 5 μM MK-801 to block completely the ionic current elicited by glutamate acting on the NMDA receptor channels present in CAl pyramidal neurons. Three distinct methods of drug application were employed: 1) slow bath perfusion of agonist and drugs while recording in whole-cell mode (onset 30s); ii) fast application to outside-out patches of a fixed concentration of agonist with a double barrel pipette (onset<1 ms) in the presence and the absence of drugs; iii) fast perfusion (onset<6 ms) of increasing concentrations of agonist and drugs applied with the Y-tubing device to outside-out patches excised from neurons in brain slices and to voltage-clamped neurons in primary culture.
. The most efficacious (1 mM) derivative was IDRA21, which elicited a potentiation of 797±220% (n=4 cells), followed by IDRA 20 with a potentiation of 292±100% (n=4 cells) (FIG. 2). […]

CC1Nc2ccc(Cl)cc2S(=O)(=O)N1 (racemic) [IDRA 21, 7-chloro-3-methyl-3,4-dihydro-2H 1,2,4-benzothiadiazine S-S dioxide]
effect on kainate-activated current ([1]; 1 mM compound, 20 μM kainate): failed to potentiate the kainate-activated current | effect on kainate responses at doses that decreased AMPA desensitization ([1]; all doses that decrease/inhibit AMPA desensitization): failed to affect kainate responses | potentiation of glutamate-elicited current ([2]; 10 μM compound, mean±SE, N=4 cells): 65±6.9% | potentiation of glutamate-elicited current ([2]; 100 μM compound, mean±SE, N=4 cells): 109±30% | efficacy relative to diazoxide (potentiation of glutamate current) ([2]; 1 mM): 4 fold | potentiation of glutamate-elicited current ([2]; 1 mM compound, 50 μM glutamate, 5 μM MK-801, whole-cell, slow perfusion): 797±200% | potentiation of glutamate-elicited current ([2]; 1 mM compound, 50 μM glutamate, 5 μM MK-801, whole-cell, slow perfusion, listed as IDRA21): 797±220% | maximal efficacy reached, in words ([2]; 1 mM, maximal dose testable without vehicle effect): failed to reach maximal efficacy at 1 mM | potentiation of glutamate current, dose dependence ([2]; up to 1 mM): dose-dependent potentiation
